Source: publication PMC7146544, “Dual Plasmepsin-Targeting Antimalarial Agents Disrupt Multiple Stages of the Malaria Parasite Life Cycle” (Cell Host & Microbe, 2020)
Where two headings read alike, the source gives them in different places.

Experiments:
[1] = system: PMIX; assay: CETSA thermal stability assay, PMIX; format: binding, P. falciparum
Description: Lysate CETSA experiments were conducted essentially as described ([Dziekan et al., 2019]). Samples for CETSA studies were prepared using highly synchronous schizont stage P. falciparum 3D7-PMIX_HA and 3D7-PMX_HA parasites. Late-stage parasites (40–44 h post-invasion) were purified by Percoll density gradient and incubated with 1 μM compound 1 (C1) inhibitor (synthesized in-house) ([Hale et al., 2017]). After 2–4 h incubation, mature schizonts were washed once with PBS and pelleted infected red blood cells were lysed in 20 volumes of 0.15% (w/v) saponin in PBS and incubated on ice for 20 min. Parasites were washed 3 times in ice-cold PBS and the final pellet was resuspended in 10 volumes of lysis buffer (0.4% NP-40 (Roche) / PBS) and lysed by three freezing (dry ice/ethanol bath) - thawing cycles. The lysates were cleared by centrifugation at 16,000 g for 30 min and the supernatant containing soluble parasite proteins kept at −80°C until use. […] After blocking the membrane in 5% non-fat milk in TBST (M-TBST), PMIX_HA and PMX_HA were detected with anti-HA mAb 12CA5 (produced in-house) followed by HRP-conjugated a-mouse IgG Abs (Merck). Blots were developed with ECL Western Blotting Substrate (Thermo Fisher Scientific), and the images were generated and analyzed using ChemiDoc Gel Imaging System and Image Lab Software (Bio-Rad).

[2] = system: P. falciparum; assay: P. falciparum asexual blood-stage growth inhibition (LDH or SYBR Green flow cytometry); format: cell-based, Plasmodium falciparum; settings: Plasmodium falciparum, 3D7, 3D7 parasite line, asexual blood stage; read-out: EC50, inhibition of P. falciparum growth
Description: For High Throughput Screening (HTS) of compounds we used the lactate dehydrogenase (LDH) assay to detect parasitemia ([Makler et al., 1993], [Oduola et al., 1997]) formatted in a 384 well assay using an Echo555 (Labcyte). The P. falciparum assay was conducted with minor modifications ([Gamo et al., 2010]). Briefly, an inoculum of parasitized red blood cells at 0.7% parasitemia and 2% hematocrit in RPMI-1640, 5% AlbuMAX, 2% d-sucrose, 0.3% glutamine and 150 μM hypoxanthine was used for the assay. Assay plates (Greiner #781098, 384 well, white, tissue culture treated) were prepared by dispensing 1 μl of compound from master plates at 20 μM (10% DMSO stock) into 9ul pre-dispensed growth media in each well. The parasite inoculum (30 μl) was dispensed into plates containing compounds using a Multidrop Combi dispenser (Thermo Scientific). Final assay volume was 40 μl and final compound concentration was 500 nM. The positive growth control was 0.25% DMSO and the negative growth control was 100 nM chloroquine. Plates were incubated at 37 °C for 72 h in an atmosphere of […]. Following 72 h growth, plates were sealed with parafilm and frozen at −80 °C overnight. Plates were thawed at room temperature for at least 4 h prior to LDH activity being measured. 45 μl of fresh LDH reaction mix (174 mM sodium l-lactate, 214 μM 3-acetyl pyridine adenine dinucleotide (APAD), 270 μM Nitro Blue tetrazolium chloride (NBT), 4.35 U ml-1 diaphorase, 0.7% Tween 20, 100 mM Tris-HCl pH 7.5) was dispensed into each well using a Multidrop Combi dispenser. Plates were shaken to ensure mixing and absorbance at 650 nm was measured in an EnVision (PerkinElmer) plate reader after 30 min of incubation at room temperature. Data were normalized to percent growth inhibition using positive and negative controls and analyzed using Dotmatics 5.3 and Spotfire 7.11.1 (Tibco) software.
All wells were backfilled with DMSO to 45 nL such that this remained constant (0.1% DMSO). The positive growth control was 0.1% DMSO and the negative growth control was 100 nM chloroquine. Parasite inoculum (40 μl) was dispensed into plates containing compounds as described above. All other culture and lactate dehydrogenase (LDH) reaction methods are as described previously ([Makler et al., 1993], [Oduola et al., 1997]).
After 72 h incubation at 37°C each well was fixed at room temperature for 30 min with 50 μL of 0.25% glutaraldehyde (ProSciTech) diluted in PBS. Following centrifugation at 1200 rpm for 1 min, supernatants were discarded and parasites were stained with 50 μL of 5X SYBR Green (Invitrogen) diluted in PBS. 50,000 cells were counted by flow cytometry using a Cell Lab Quanta SC – MPL Flow Cytometer (Beckman Coulter) ([Bacon et al., 2007]). Growth was expressed as a percentage of the parasitemia obtained using a vehicle control. All samples were tested in triplicate. EC50 values were determined using GraphPad Prism.

[3] = system: P. berghei; assay: Dose ranging test for P. berghei infection in mice; format: in vivo, Plasmodium berghei
Description: Control mice were treated orally with chloroquine for 4 days under q.d. dosing regimen at 10 mpk/day. From day 2 to 30 post infection, parasitemia was measured daily by flow cytometry and microscopy, as described above. Survival of animals to day 30 post infection, with no detectable parasites in the peripheral blood, were considered to be cured (i.e., 100% efficacy).

[4] = system: P. knowlesi; assay: P. knowlesi drug sensitivity assay; format: cell-based, Plasmodium knowlesi; settings: 48 h, blood stage parasites, read-out: EC50, inhibition of P. knowlesi growth
Description: The drug sensitivity assays were performed in 96-well plates using 50 μL culture at 0.5% parasitemia and 2% hematocrit. The compounds were serially diluted in 1% DMSO. Parasite growth assays were performed for 48 h. Parasite cultures were then fixed with 50 μL 0.25% glutaraldehyde for 30 min at room temperature. The culture supernatants were removed and the cells were stained with 5% SYBR Green in the dark for 30 min. Parasitemia was defined by the proportion of Alexa 488-A positive cells in 50,000 recorded events using LSR II analyzer (BD). The percentage of parasite growth was normalized with the DMSO vehicle control group and the highest-dosage group, and plotted as a dose-response curve in Prism 7.

Row | Compound | effect on thermal stability of PMIX [1] | EC50 [2] | day post-infection from which parasites were detected ([3]; WM382 1 mpk oral b.i.d. 4 days) | day post-infection after which parasites were detectable ([3]; WM382 3 mpk oral b.i.d. 4 days) | outcome to day 30 post-infection ([3]; WM382 3 mpk oral b.i.d. 4 days, n = 4) | outcome to day 30 post-infection ([3]; WM382 10 mpk oral b.i.d. 4 days) | outcome to day 30 post-infection ([3]; WM382 30 mpk oral b.i.d. 4 days) | outcome to day 30 post-infection ([3]; WM382 oral q.d. 60, 30 or 10 mpk/day, 4 days) | EC50 ([4]; Plasmodium knowlesi) | EC50 [4]
1 | CC(NC(=O)c1cccc(C(c2ccccc2)N2C(=N)NC(C)(C(C)C)CC2=O)c1)c1ccccc1 (racemic) [WM4] | no effect on the thermal stability of PMIX |  |  |  |  |  |  |  |  | 
2 | CCC1(CC)CC(=O)N([C@@H]2CCOc3ccc(C(=O)N[C@H]4CC(C)(C)Oc5ccccc54)cc32)C(=N)N1 [WM382] | significantly more thermostable | 0.6 nM | 2 days | > 12 days | one mouse remaining parasite-free on day 30 pi | remained parasite-free | remained parasite-free | cured all mice | 0.2 nM | 0.18 ± 0.06 nM
